Reference: patent US10265422B2, “Ethylenediaminetetraacetic acid bis(amide) derivatives and their respective complexes with Mn(II) ion for use as MRI contrast agent” (BRACCO IMAGING S.P.A., priority 2015, dated 2019)
Where two headings read alike, the source gives them in different places.

What was measured:
[1] = target: human serum albumin (HSA) (Homo sapiens, UniProt P02768); conditions: presence of HSA, 20 MHz
[2] = Relaxivity r1 in water at 20 MHz; type: physicochemical; conditions: absence of HSA
[3] = Decomplexation of Mn(II) complexes: transmetallation with Cu2+ ions followed by spectrophotometry; type: physicochemical; conditions: pH 7.4, 25 °C, read-out: t½ (half-life of decomplexation) (converted)
Procedure: These studies were performed by following the transmetallation reaction between the Mn^2+ based complexes and Cu^2+ ions by spectrophotometry as reported in […]. Inorganic Chemistry (2012), 51, 10065-7.

[4] = calculated using rate constants

Chain of human serum albumin (HSA) (P02768 25-609): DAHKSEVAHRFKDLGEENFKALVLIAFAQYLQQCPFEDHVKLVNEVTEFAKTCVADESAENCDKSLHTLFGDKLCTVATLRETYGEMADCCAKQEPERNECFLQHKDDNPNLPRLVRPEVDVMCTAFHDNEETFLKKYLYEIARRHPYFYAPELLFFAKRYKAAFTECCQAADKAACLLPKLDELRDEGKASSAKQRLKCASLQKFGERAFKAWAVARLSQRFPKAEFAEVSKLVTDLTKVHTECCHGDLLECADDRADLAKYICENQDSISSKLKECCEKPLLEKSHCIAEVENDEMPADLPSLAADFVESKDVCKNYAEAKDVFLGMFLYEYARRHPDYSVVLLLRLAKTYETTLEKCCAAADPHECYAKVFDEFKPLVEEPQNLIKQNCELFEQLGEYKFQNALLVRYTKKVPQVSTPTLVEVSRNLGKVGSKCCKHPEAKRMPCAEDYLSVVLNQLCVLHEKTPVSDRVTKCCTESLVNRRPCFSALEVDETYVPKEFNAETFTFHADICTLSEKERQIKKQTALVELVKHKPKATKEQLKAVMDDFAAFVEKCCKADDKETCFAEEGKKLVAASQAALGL

| Structure (SMILES) | r1 HSA (relaxivity) ([1]; 25 °C) [mM⁻¹ s⁻¹] | r1 HSA (relaxivity) ([1]; 37 °C) [mM⁻¹ s⁻¹] | r1 (relaxivity) ([2]; 25 °C) [mM⁻¹ s⁻¹] | r1 (relaxivity) ([2]; 37 °C) [mM⁻¹ s⁻¹] | half-life [3, 4] [h] | half-life ([3]; footnote: half-life in seconds) [h] |
| --- | --- | --- | --- | --- | --- | --- |
| O=C(O)CN(CC(=O)N1CCOCC1)C1CCCCC1N(CC(=O)O)CC(=O)N1CCOCC1 (stereo not drawn) | 7.64 | 6.57 | 3.77 | 2.95 | – | – |
| O=C(O)CN(CC(=O)N1CCC(Cc2ccccc2)CC1)c1ccccc1N(CC(=O)O)CC(=O)N1CCC(Cc2ccccc2)CC1 [drawing 41] | – | – | – | – | – | 0.0167 |
| O=C(O)CN(CC(=O)N1CCC(Cc2ccccc2)CC1)C1CCCCC1N(CC(=O)O)CC(=O)N1CCC(Cc2ccccc2)CC1 (stereo not drawn) | 19.44 | 18.16 | 5.56 | 4.17 | – | – |
| O=C(O)CN(CC(=O)N1CCC(C(=O)O)CC1)C1CCCCC1N(CC(=O)O)CC(=O)N1CCC(C(=O)O)CC1 (stereo not drawn) | 5.98 | 4.65 | 4.97 | 3.75 | – | – |
| O=C(O)CN(CC(=O)N1CCCCC1)c1ccccc1N(CC(=O)O)CC(=O)N1CCCCC1 [drawing 40] | – | – | – | – | – | 0.0231 |
| O=C(O)CN(CC(=O)N1CCCCC1)C1CCCCC1N(CC(=O)O)CC(=O)N1CCCCC1 (stereo not drawn) [drawing 20] | 5.63 | 4.56 | 4.43 | 3.49 | – | – |
| O=C(O)CN(CC(=O)N1CCC(Cc2ccccc2)CC1)c1ccccc1N(CC(=O)O)CC(=O)N1CCC(Cc2ccccc2)CC1 [drawing 28] | 28.20 | 23.84 | 5.29 | 4.04 | – | – |
| O=C(O)CN(CC(=O)N1CCCCC1)c1ccccc1N(CC(=O)O)CC(=O)N1CCCCC1 [drawing 27] | 9.09 | 6.78 | 4.60 | 3.50 | – | – |

Other lines, results leading:

| r1 HSA (relaxivity) ([1]; 25 °C) [mM⁻¹ s⁻¹] | r1 HSA (relaxivity) ([1]; 37 °C) [mM⁻¹ s⁻¹] | r1 (relaxivity) ([2]; 25 °C) [mM⁻¹ s⁻¹] | r1 (relaxivity) ([2]; 37 °C) [mM⁻¹ s⁻¹] | half-life [3, 4] [h] | half-life ([3]; footnote: half-life in seconds) [h] | Structure (SMILES) |
| --- | --- | --- | --- | --- | --- | --- |
| 6.01 | 4.44 | 5.17 | 3.94 | – | – | O=C(O)CN(CC(=O)NC(CO)CO)C1CCCCC1N(CC(=O)O)CC(=O)NC(CO)CO (stereo not drawn) [drawing 24] |
| – | – | – | – | 57 | – | CCCCNC(=O)CN(CC(=O)O)C1CCCCC1N(CC(=O)O)CC(=O)NCCCC (stereo not drawn) [drawing 39] |
| 6.55 | 5.37 | 4.64 | 3.62 | – | – | CCCCNC(=O)CN(CC(=O)O)C1CCCCC1N(CC(=O)O)CC(=O)NCCCC (stereo not drawn) [drawing 26] |
| – | – | – | – | 285 | – | O=C(O)CN(CC(=O)N1CCCCC1)C1CCCCC1N(CC(=O)O)CC(=O)N1CCCCC1 (stereo not drawn) [drawing 29] |
| 13.10 | 9.94 | 4.37 | 3.43 | – | – | CN(C)C(=O)CN(CC(=O)O)C1CCCCC1N(CC(=O)O)CC(=O)N(C)C (stereo not drawn) [drawing 25] |
| – | – | – | – | 166 | – | O=C(O)CN(CC(=O)NC(CO)CO)C1CCCCC1N(CC(=O)O)CC(=O)NC(CO)CO (stereo not drawn) [drawing 37] |
| – | – | – | – | 131 | – | CN(C)C(=O)CN(CC(=O)O)C1CCCCC1N(CC(=O)O)CC(=O)N(C)C (stereo not drawn) [drawing 38] |
